Target: T1, cloned human H3 receptors, stably expressed in SK-N-MC cells (Homo sapiens, UniProt Q9Y5N1)
T1 construct: expressed in transfected cells; host or cells: SK-N-MC cells
Experiment: H3 Receptor Binding (Human)
Settings: average of the results obtained
Method: Binding of compounds to the cloned human H3 receptors, stably expressed in SK-N-MC cells, was performed as described by Barbier, A. J. et al. (Br. J. Pharmacol. 2004, 143(5), 649-661). Data for compounds tested in this assay are presented in Table 1 as an average of the results obtained.

T1 sequence (Q9Y5N1 whole entry): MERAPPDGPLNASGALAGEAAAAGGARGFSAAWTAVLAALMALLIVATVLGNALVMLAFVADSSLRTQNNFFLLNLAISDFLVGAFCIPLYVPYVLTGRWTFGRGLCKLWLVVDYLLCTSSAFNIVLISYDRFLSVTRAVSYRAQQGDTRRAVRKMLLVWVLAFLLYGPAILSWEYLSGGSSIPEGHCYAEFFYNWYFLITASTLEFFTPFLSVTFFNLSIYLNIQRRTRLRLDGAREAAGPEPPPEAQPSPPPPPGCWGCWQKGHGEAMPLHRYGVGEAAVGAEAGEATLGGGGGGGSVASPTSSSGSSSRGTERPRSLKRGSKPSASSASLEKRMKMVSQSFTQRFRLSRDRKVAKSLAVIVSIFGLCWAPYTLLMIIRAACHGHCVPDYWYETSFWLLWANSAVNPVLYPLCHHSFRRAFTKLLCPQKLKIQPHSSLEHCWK

SMILES | Ki [µM]
CC(C)N1CCN(C(=O)c2ccc3c(CN4CCC(O)(c5ccccc5)CC4)c[nH]c3c2)CC1 [Example 65, [3-(4-Hydroxy-4-phenyl-piperidin-1-ylmethyl)-1H-indol-6-yl]-(4-isopropyl-piperazin-1-yl)-methanone] | 0.001
O=C(c1ccc2c(CN3CCC(N4CCCCC4)CC3)c[nH]c2c1)N1CCSCC1 [Example 67, (3-[1,4′]Bipiperidinyl-1′-ylmethyl-1H-indol-6-yl)-thiomorpholin-4-yl-methanone] | 0.171
O=C(c1ccc2c(CN3CCC(N4CCCCC4)CC3)c[nH]c2c1)N1CCOCC1 [Example 73, (3-[1,4′]Bipiperidinyl-1′-ylmethyl-1H-indol-6-yl)-morpholin-4-yl-methanone] | 0.205
O=C(c1ccc2c(CN3CCN(C4CCCC4)CC3)c[nH]c2c1)N1CCOCC1 [Example 74, [3-(4-Cyclopentyl-piperazin-1-ylmethyl)-1H-indol-6-yl]-morpholin-4-yl-methanone] | 0.053
O=C(c1ccc2c(CN3CCN(C4CCC4)CC3)c[nH]c2c1)N1CCOCC1 [Example 75, [3-(4-Cyclobutyl-piperazin-1-ylmethyl)-1H-indol-6-yl]-morpholin-4-yl-methanone] | 0.043
CC(C)N1CCN(Cc2c[nH]c3cc(C(=O)N4CCOCC4)ccc23)CC1 [Example 76, [3-(4-Isopropyl-piperazin-1-ylmethyl)-1H-indol-6-yl]-morpholin-4-yl-methanone] | 0.054
O=C(c1ccc2c(CN3CCCN(C4CCC4)CC3)c[nH]c2c1)N1CCOCC1 [Example 77, [3-(4-Cyclobutyl-[1,4]diazepan-1-ylmethyl)-1H-indol-6-yl]-morpholin-4-yl-methanone] | 0.038
CC(C)N1CCCN(Cc2c[nH]c3cc(C(=O)N4CCOCC4)ccc23)CC1 [Example 78, [3-(4-Isopropyl-[1,4]diazepan-1-ylmethyl)-1H-indol-6-yl]-morpholin-4-yl-methanone] | 0.042
O=C(c1ccc2c(CN3CCC(N4CCCCC4)CC3)c[nH]c2c1)N1CCC(CO)CC1 [Example 79, (3-[1,4′]Bipiperidinyl-1′-ylmethyl-1H-indol-6-yl)-(4-hydroxymethyl-piperidin-1-yl)-methanone] | 0.062
O=C(c1ccc2c(CN3CCN(C4CCCC4)CC3)c[nH]c2c1)N1CCC(CO)CC1 [Example 80, [3-(4-Cyclopentyl-piperazin-1-ylmethy)l-1H-indol-6-yl]-(4-hydroxymethyl-piperidin-1-yl)-methanone] | 0.038
CC(C)N1CCCN(Cc2c[nH]c3cc(C(=O)N4CCC(CO)CC4)ccc23)CC1 [Example 84, (4-Hydroxymethyl-piperidin-1-yl)-[3-(4-isopropyl-[1,4]diazepan-1-ylmethyl)-1H-indol-6-yl]-methanone] | 0.087
O=C(c1ccc2c(CN3CCC(N4CCCCC4)CC3)c[nH]c2c1)N1CCC(c2ccccc2)CC1 [Example 85, (3-[1,4′]Bipiperidinyl-1′-ylmethyl-1H-indol-6-yl)-(4-phenyl-piperidin-1-yl)-methanone] | 0.081

Results, then the molecule that gave them:

Ki [µM] | SMILES
0.001 | CC(C)N1CCN(C(=O)c2ccc3c(CN4CCC(Cc5ccccc5)CC4)c[nH]c3c2)CC1 [Example 55, [3-(4-Benzyl-piperidin-1-ylmethyl)-1H-indol-6-yl]-(4-isopropyl-piperazin-1-yl)-methanone]
0.002 | CC(C)N1CCN(C(=O)c2ccc3c(CN4CCN(CCc5ccccc5)CC4)c[nH]c3c2)CC1 [Example 56, (4-Isopropyl-piperazin-1-yl)-[3-(4-phenethyl-piperazin-1-ylmethyl)-1H-indol-6-yl]-methanone]
0.001 | CC(C)N1CCN(C(=O)c2ccc3c(CN4CCCOCC4)c[nH]c3c2)CC1 [Example 59, (4-Isopropyl-piperazin-1-yl)-(3-[1,4]-oxazepan-4-ylmethyl-1H-indol-6-yl)-methanone]
0.001 | CC(=O)N(C)C1CCN(Cc2c[nH]c3cc(C(=O)N4CCN(C(C)C)CC4)ccc23)C1 (stereo not shown) [Example 60, N-{1-[6-(4-Isopropyl-piperazine-1-carbonyl)-1H-indol-3-ylmethyl]-pyrrolidin-3-yl}-N-methyl-acetamide]
0.003 | CC(C)N1CCN(C(=O)c2ccc3c(CN4CCN(C(=O)N5CCOCC5)CC4)c[nH]c3c2)CC1 [Example 61, (4-Isopropyl-piperazin-1-yl)-{3-[4-(morpholine-4-carbonyl)-piperazin-1-ylmethyl]-1H-indol-6-yl}-methanone]
0.007 | CC(C)N1CCN(C(=O)c2ccc3c(CN4CCN(C(=O)c5ccncc5)CC4)c[nH]c3c2)CC1 [Example 62, (4-Isopropyl-piperazin-1-yl)-{3-[4-(pyridine-4-carbonyl)-piperazin-1-ylmethyl]-1H-indol-6-yl}-methanone]
0.001 | CC(C)N1CCN(C(=O)c2ccc3c(CN4CCN(C(=O)c5ccccc5)CC4)c[nH]c3c2)CC1 [Example 63, [3-(4-Benzoyl-piperazin-1-ylmethyl)-1H-indol-6-yl]-(4-isopropyl-piperazin-1-yl)-methanone]
0.001 | CC(C)N1CCN(C(=O)c2ccc3c(CN4CCN(c5ccncc5)CC4)c[nH]c3c2)CC1 [Example 64, (4-Isopropyl-piperazin-1-yl)-[3-(4-pyridin-4-yl-piperazin-1-ylmethyl)-1H-indol-6-yl]-methanone]
0.036 | O=C(c1ccc2c(CN3CCN(C4CCCC4)CC3)c[nH]c2c1)N1CCSCC1 [Example 68, [3-(4-Cyclopentyl-piperazin-1-ylmethyl)-1H-indol-6-yl]-thiomorpholin-4-yl-methanone]
0.019 | CN(C)C1CCN(Cc2c[nH]c3cc(C(=O)N4CCSCC4)ccc23)C1 (stereo not shown) [Example 69, [3-(3-Dimethylamino-pyrrolidin-1-ylmethyl)-1H-indol-6-yl]-thiomorpholin-4-yl-methanone]
0.027 | O=C(c1ccc2c(CN3CCN(C4CCC4)CC3)c[nH]c2c1)N1CCSCC1 [Example 70, [3-(4-Cyclobutyl-piperazin-1-ylmethyl)-1H-indol-6-yl]-thiomorpholin-4-yl-methanone]
0.022 | O=C(c1ccc2c(CN3CCCN(C4CCC4)CC3)c[nH]c2c1)N1CCSCC1 [Example 71, [3-(4-Cyclobutyl-[1,4]diazepan-1-ylmethyl)-1H-indol-6-yl]-thiomorpholin-4-yl-methanone]
0.036 | CC(C)N1CCCN(Cc2c[nH]c3cc(C(=O)N4CCSCC4)ccc23)CC1 [Example 72, [3-(4-Isopropyl-[1,4]diazepan-1-ylmethyl)-1H-indol-6-yl]-thiomorpholin-4-yl-methanone]
0.017 | O=C(c1ccc2c(CN3CCN(C4CCC4)CC3)c[nH]c2c1)N1CCC(CO)CC1 [Example 81, [3-(4-Cyclobutyl-piperazin-1-ylmethy)l-1H-indol-6-yl]-(4-hydroxymethyl-piperidin-1-yl)-methanone]
0.034 | CC(C)N1CCN(Cc2c[nH]c3cc(C(=O)N4CCC(CO)CC4)ccc23)CC1 [Example 82, (4-Hydroxymethyl-piperidin-1-yl)-[3-(4-isopropyl-piperazin-1-ylmethyl)-1H-indol-6-yl]-methanone]
0.027 | O=C(c1ccc2c(CN3CCCN(C4CCC4)CC3)c[nH]c2c1)N1CCC(CO)CC1 [Example 83, [3-(4-Cyclobutyl-[1,4]diazepan-1-ylmethyl)-1H-indol-6-yl]-(4-hydroxymethyl-piperidin-1-yl)-methanone]

— US20110178062A1, “INDOLE AND BENZOTHIOPHENE COMPOUNDS AS MODULATORS OF THE HISTAMINE H3 RECEPTOR” (priority 2007, published 2011)
